# Assay results reported in the supplement of paper PMC4862054.
# Tests used:
# Conditions in all cases: incubation time: 72 h
# BT-474 [1] = assay: normalised response (% of control), CellTiter-Glo; higher = more viable cells (100 = DMSO, 0 = benzethonium chloride kill control)
# In short: (§1)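 Two readouts were taken after 72 h: CellTox Green fluorescence (485/520 nm) first, then CellTiter-Glo luminescence after 10 min at room temperature. Breast cancer cell lines had been seeded as 20 µl suspension into 384-well plates holding compound at 5 concentrations in 10-fold steps across a compound-specific 10,000-fold range. Each value is a normalised signal at a single concentration, with plates scaled to 0.1 % DMSO (100) and a positive kill control (0).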
# BT-549 [2] = assay: as above
# In short: as §1
# CAL-120 [3] = assay: as above
# In short: as §1
# CAL-148 [4] = assay: as above
# In short: as §1
# CAL-51 [5] = assay: as above
# In short: as §1
# CAL-85-1 [6] = assay: as above
# In short: as §1
# DU-4475 [7] = assay: as above
# In short: as §1
# HCC1143 [8] = assay: as above
# In short: as §1
# HCC1599 [9] = assay: as above
# In short: as §1
# HCC1937 [10] = assay: as above
# In short: as §1
# HDQ-P1 [11] = assay: as above
# In short: as §1
# Hs578T [12] = assay: as above
# In short: as §1
# MCF-10A = assay: as above
# In short: as §1
# MDA-MB-231 [13] = assay: as above
# In short: as §1
# MDA-MB-436 [14] = assay: as above
# In short: as §1
# MDA-MB-453 [15] = assay: as above
# In short: as §1
# MDA-MB-468 [16] = assay: as above
# In short: as §1
# MFM-223 [17] = assay: as above
# In short: as §1
# SK-BR-3 [18] = assay: as above
# In short: as §1
# BT-474 [19] = assay: normalised viability (% of control), CellTiter-Blue; higher = more viable cells (100 = DMSO, 0 = benzethonium chloride kill control)
# Description: (§2)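 DSRT, CellTiter-Blue viability, 72 h incubation. Signal is normalised to DMSO and benzethonium chloride controls. Value is the normalised response at dose 1.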
# BT-549 [20] = assay: as above
# Description: as §2
# CAL-120 [21] = assay: as above
# Description: as §2
# CAL-148 [22] = assay: as above
# Description: as §2
# CAL-51 [23] = assay: as above
# Description: as §2
# CAL-85-1 [24] = assay: as above
# Description: as §2
# DU-4475 [25] = assay: as above
# Description: as §2
# HCC1143 [26] = assay: as above
# Description: as §2
# HCC1599 [27] = assay: as above
# Description: as §2
# HCC1937 [28] = assay: as above
# Description: as §2
# HDQ-P1 [29] = assay: as above
# Description: as §2
# Hs578T [30] = assay: as above
# Description: as §2
# MDA-MB-231 [31] = assay: as above
# Description: as §2
# MDA-MB-436 [32] = assay: as above
# Description: as §2
# MDA-MB-453 [33] = assay: as above
# Description: as §2
# MDA-MB-468 [34] = assay: as above
# Description: as §2
# MFM-223 [35] = assay: as above
# Description: as §2
# SK-BR-3 [36] = assay: as above
# Description: as §2
SMILES,normalised response (BT-474 [1]),normalised response (BT-549 [2]),normalised response (CAL-120 [3]),normalised response (CAL-148 [4]),normalised response (CAL-51 [5]),normalised response (CAL-85-1 [6]),normalised response (DU-4475 [7]),normalised response (HCC1143 [8]),normalised response (HCC1599 [9]),normalised response (HCC1937 [10]),normalised response (HDQ-P1 [11]),normalised response (Hs578T [12]),normalised response (MCF-10A),normalised response (MDA-MB-231 [13]),normalised response (MDA-MB-436 [14]),normalised response (MDA-MB-453 [15]),normalised response (MDA-MB-468 [16]),normalised response (MFM-223 [17]),normalised response (SK-BR-3 [18]),normalised viability (BT-474 [19]),normalised viability (BT-549 [20]),normalised viability (CAL-120 [21]),normalised viability (CAL-148 [22]),normalised viability (CAL-51 [23]),normalised viability (CAL-85-1 [24]),normalised viability (DU-4475 [25]),normalised viability (HCC1143 [26]),normalised viability (HCC1599 [27]),normalised viability (HCC1937 [28]),normalised viability (HDQ-P1 [29]),normalised viability (Hs578T [30]),normalised viability (MDA-MB-231 [31]),normalised viability (MDA-MB-436 [32]),normalised viability (MDA-MB-453 [33]),normalised viability (MDA-MB-468 [34]),normalised viability (MFM-223 [35]),normalised viability (SK-BR-3 [36])
CCNC(=O)CCC/C=C\C[C@@H]1[C@@H](/C=C/[C@@H](O)CCc2ccccc2)[C@H](O)C[C@@H]1O [Bimatoprost] (0.55 nM),95.8%,103%,95.8%,98.3%,90.8%,96.6%,102%,92.6%,88.5%,99.9%,92.7%,93.3%,91.1%,101%,98.5%,108%,99.3%,94.3%,85.8%,110%,103%,91.6%,96.5%,120%,94.7%,111%,99%,115%,103%,119%,113%,120%,111%,102%,109%,94.9%,117%
COc1cc(Nc2c(C#N)cnc3cc(OCCCN4CCN(C)CC4)c(OC)cc23)c(Cl)cc1Cl [Bosutinib] (1 nM),98.8%,98.4%,92.6%,104%,99.9%,96.4%,101%,93%,112%,97.3%,99.6%,95.6%,99.9%,93.1%,96.6%,101%,101%,99.3%,104%,116%,111%,84.3%,94.8%,112%,88.8%,105%,94%,103%,80.1%,108%,110%,100%,113%,113%,112%,93.1%,106%
Cn1cc(C2=C(c3cn(C4CCN(Cc5ccccn5)CC4)c4ccccc34)C(=O)NC2=O)c2ccccc21 [Enzastaurin] (1 nM),96.4%,102%,98.3%,104%,61.3%,105%,101%,96.6%,102%,96.9%,96.8%,105%,106%,98.5%,94.2%,109%,104%,103%,109%,105%,113%,86.2%,98.9%,114%,86.3%,108%,92.5%,104%,97.2%,107%,98.2%,87.5%,130%,96.4%,99%,82.1%,92.5%
CC(C)(C)NC(=O)[C@H]1CC[C@H]2[C@@H]3CC[C@H]4NC(=O)C=C[C@]4(C)[C@H]3CC[C@]12C [Finasteride] (1 nM),101%,103%,99.5%,103%,94.5%,96%,102%,99%,98.8%,96.1%,102%,104%,111%,107%,99.5%,112%,104%,102%,103%,72.8%,93.1%,104%,110%,108%,97%,96.7%,107%,91.6%,100%,133%,108%,108%,98.7%,109%,105%,96.4%,74.8%
Nc1ccn([C@@H]2O[C@H](CO)[C@@H](O)C2(F)F)c(=O)n1 [Gemcitabine] (0.1 nM),97%,98.4%,93.6%,96%,101%,94.2%,99.9%,92.6%,97.4%,95.8%,95.1%,106%,99.7%,94.5%,102%,107%,95.8%,94.5%,93.4%,87%,108%,96.5%,103%,105%,96.8%,93.5%,101%,89.4%,76.1%,111%,114%,94.6%,108%,109%,100%,101%,102%
CC(C)C[C@H](NC(=O)[C@@H](COC(C)(C)C)NC(=O)[C@H](Cc1ccc(O)cc1)NC(=O)[C@H](CO)NC(=O)[C@H](Cc1c[nH]c2ccccc12)NC(=O)[C@H](Cc1cnc[nH]1)NC(=O)[C@@H]1CCC(=O)N1)C(=O)N[C@@H](CCCNC(=N)N)C(=O)N1CCC[C@H]1C(=O)NNC(N)=O [Goserelin] (1 nM),99.2%,105%,99.6%,84.5%,122%,96.4%,95.1%,96.7%,96%,92.7%,97.3%,96.1%,94.8%,103%,102%,108%,101%,96.7%,96.8%,82.1%,93.1%,104%,109%,110%,87.7%,99.3%,94.3%,114%,86.5%,111%,106%,103%,102%,102%,91.7%,96%,93.3%
CC(=O)[C@]1(O)Cc2c(O)c3c(c(O)c2[C@@H](O[C@H]2C[C@H](N)[C@H](O)[C@H](C)O2)C1)C(=O)c1ccccc1C3=O [Idarubicin] (0.1 nM),106%,105%,105%,110%,101%,102%,103%,109%,102%,100%,101%,107%,103%,109%,112%,101%,112%,108%,105%,99.8%,109%,101%,102%,102%,95.7%,92.2%,103%,96.6%,92.9%,115%,112%,78%,112%,101%,130%,97%,95.3%
